Biological target: T1, LDH from rabbit muscle (LDH-A) (Oryctolagus cuniculus, UniProt P13491)
T1 construct: gene LDHA; native commercial enzyme from rabbit muscle (Sigma-Aldrich), homotetramer
Assay: spectrophotometric NADH absorbance decrease at […] nm, initial rate
Assay type: biochemical

IC50: 1200 µM
Compound: O=S(=O)(O)CCSc1nc2ccccc2s1 [compound 4, 2-(benzothiazol-2-ylsulfanyl)-ethanesulfonate]
